Columns and labels:
NAMPT [1] = molecular target: T1, NAMPT (Homo sapiens, UniProt P43490); assay: NAMPT activity assay (coupled recombinant enzyme kit); type: biochemical; parameters: purchased Abcam ab221819; conditions: OD450 at 60 min, normalized by subtraction of DMSO value
Excerpt: We next tested whether Carba1 could activate NAMPT in vitro. To that aim, we used a commercial recombinant human enzyme assay containing four enzymes: NAMPT, NAM nucleotide adenylyltransferase 1 (NMNAT1), alcohol dehydrogenase (ADH), and diaphorase (see Materials and Methods). In the presence of NAM and 5-phosphoribosyl-1-pyrophosphate (PRPP), NAMPT converts NAM to NMN, which is then converted into NAD^+ by NMNAT1, while ADH converts NAD^+ to NADH. Then, into a coupled-reaction, diaphorase converts NADH into NAD^+ and tetrazolium salt WST-1 {4-[3-(4-iodophenyl)-2-(4-nitro-phenyl)-2H-5-tetrazolio]-1,3-benzene sulfonate} to formazan, which can be detected at optical density at 450 nm (OD450). In practice, we proceeded in two steps. First, Carba1 and the different tested compounds were incubated for 15 min with NAMPT, NMNAT1, NAM, and PRPP to allow NAD^+ production. The reaction was then stopped with FK866 before adding ADH and diaphorase to convert the NAD^+ produced to NADH, and absorbance was monitored at regular intervals.
NAMPT activity was measured using the commercial kit, NAMPT Activity Assay, according to the manufacturer’s instructions. […] A mixture of water-soluble tetrazolium salts (WST-1), ADH, diaphorase, and ethanol was added and the absorbance (OD450) measured for 90 min using the microplate reader ClarioSTAR (BMG Labtech).
Target sequence in this assay (P43490 whole entry): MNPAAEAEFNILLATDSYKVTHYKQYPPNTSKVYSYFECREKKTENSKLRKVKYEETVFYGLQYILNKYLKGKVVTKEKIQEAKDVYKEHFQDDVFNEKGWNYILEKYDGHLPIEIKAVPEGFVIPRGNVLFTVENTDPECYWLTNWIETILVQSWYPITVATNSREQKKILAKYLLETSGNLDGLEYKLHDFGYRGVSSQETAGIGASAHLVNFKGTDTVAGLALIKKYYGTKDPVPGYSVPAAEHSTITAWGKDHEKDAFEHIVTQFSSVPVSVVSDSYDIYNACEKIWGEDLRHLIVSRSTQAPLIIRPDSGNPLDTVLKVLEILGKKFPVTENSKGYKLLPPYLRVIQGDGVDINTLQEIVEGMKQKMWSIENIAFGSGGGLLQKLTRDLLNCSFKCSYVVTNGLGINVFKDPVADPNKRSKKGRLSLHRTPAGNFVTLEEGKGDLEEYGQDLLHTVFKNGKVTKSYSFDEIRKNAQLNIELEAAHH

HeLa cells [2] = assay: HeLa cell viability (PrestoBlue) assay, 72 h; type: cell-based, human; conditions: HeLa cells
Procedure: The human HeLa cell line was tested negative for mycoplasma contamination. HeLa cells were grown in RPMI 1640 medium supplemented with penicillin/streptomycin (100 μg/ml) and 10% FBS and maintained in a humidified incubator at 37°C and 5% CO2.
Cell viability was analyzed using the colorimetric PrestoBlue assay. Cells were seeded in 96-well microplates at a density of 7500 cells per well, allowed to adhere for 24 hours, and treated for 72 hours with either DMSO or drugs at indicated concentrations. PrestoBlue (10 μl) was then added to each well, followed by a 30-min incubation. Fluorescence was measured using a FLUOstar Optima microplate reader (excitation, 544 nm; emission, 580 nm; BMG Labtech).

NAMPT [3] = molecular target: T1, NAMPT; assay: AS-MS binding assay, NAMPT; conditions: 10 μM compound, 3 μM NAMPT
Procedure: (§1) To this end, Carba1 or FK866 (positive control of NAMPT binding) was first incubated with NAMPT or carbonic anhydrase (CA; negative control). Protein-ligand complexes were separated from the unbound compounds by size exclusion chromatography (SEC). To quantify the protein-bound fraction, the complexes were then dissociated using reverse-phase chromatography, and the compounds were analyzed and quantified by mass spectrometry.
(§2) AS-MS was used to assess compound binding to NAMPT. AS-MS was performed by Edelris SAS (www.edelris.com/), which has developed the commercial AS-MS service “EDEN platform,” based on ([71]). Conditions consisted of protein (NAMPT and CA) at 3 μM and compounds (Carba1 and FK866) at 10 μM dissolved in corporate buffer.
Target sequence in this assay (P43490 whole entry, species assumed): as the sequence (P43490 whole entry) above

carbonic anhydrase (CA) = assay: AS-MS binding assay, carbonic anhydrase (negative control); conditions: 10 μM compound, 3 μM carbonic anhydrase
Procedure: as §1, with “spectrometry. By comparing the amounts of compound before (preSEC) and after (postSEC) SEC in the presence of CA or NAMPT, we assessed their ability to selectively bind to NAMPT.” for “spectrometry.”
as §2

HeLa cells [4] = assay: NAD(P)H autofluorescence imaging in live HeLa cells; type: cell-based, human; conditions: 5 and 10 nM FK866, 24-hour incubation
Procedure: HeLa cells were seeded in four-chamber Labtek plates at 10,000 cells per well. After 48 hours, cells were preincubated with or without 12 μM Carba1 for 2 hours before addition of FK866 (5 and 10 nM). Drugs were added to phenol red–free DMEM medium, supplemented with 10% FBS 1% penicillin/streptomycin. After 24 hours of drug incubation, cells were imaged using a confocal microscope (LSM 710, Zeiss) with a two-photon excitation at 700 nm (Chameleon Vision Laser, Coherent) and a 40×/1.2 water-immersion objective. Detection was performed in single-photon mode using an avalanche photodiode detector (ConfoCor 3). NAD(P)H signal intensity was quantified as the mean signal per cell using ImageJ and normalized to the cell area.

Row | SMILES | activation of NAMPT in vitro (NAMPT [1]) | relief of FK866 cytotoxicity (HeLa cells [2]; coadministration with FK866) | binding to NAMPT (AS-MS) (NAMPT [3]) | binding to CA (AS-MS) (carbonic anhydrase (CA)) | GI50 (HeLa cells [2]; Homo sapiens, read-out: GI50 of FK866 alone) [nM] | reduction of NAD(P)H production (HeLa cells [4])
1 | OC(CNc1ccccc1)Cn1c2ccc(Br)cc2c2cc(Br)ccc21 (stereo not drawn) [Compound P7C3, reference compound] | No significant effect | unable to counteract the toxic effect of FK866 | – | – | – | –
2 | O=C(/C=C/c1cccnc1)NCCCCC1CCN(C(=O)c2ccccc2)CC1 [FK866, reference compound] | – | – | recovered in the fraction containing NAMPT | neither FK866 nor Carba1 was found to bind CA | 2.4 ± 0.09 | ~ 20%

Source: publication PMC12571071, “Preventing neuropathy and improving anticancer chemotherapy with a carbazole-based compound” (Science Advances, 2025)
